In one data set the target is T1, β1-AR (Homo sapiens, UniProt P08588).
T1 construct: expressed in transfected cells; host or cells: CHO-K1
The data set is described as follows: cAMP Gs HTRF assay, inhibition of isoproterenol-stimulated cAMP, affinity by Leff-Dougall equation. Format: cell-based. To be noted: CHO-K1 cells, approximate EC80 isoproterenol. The text has this:
When cAMP turnover is reduced by blocking phosphodiesterases with IBMX, cAMP accumulation occurs, and this accumulation is detected in the cAMP Gs Homogenous Time Resolved Fluorescence (HTRF) assay. The HTRF assay is a competitive inhibition assay. Endogenous cAMP, produced by stimulated cells, competes with and prevents FRET between acceptor-labeled cAMP and donor-labeled cAMP antibody. Increases in endogenous cAMP therefore cause a reduction in HTRF signal, expressed as a ratio of FRET acceptor fluorescence and FRET donor fluorescence.
cAMP HTRF measurements were performed broadly according to the cAMP Gs dynamic kit protocol (Cisbio/Perkin Elmer, 62AM4PEC). Compounds were prepared at 2× final concentration to accommodate the subsequent addition of cells. […] Test compounds were serially diluted across the plate by nine 5-fold dilutions to generate a 10-point dose-response curve.
384 well plates containing compound were covered and stored at room temperature until resuspended cell addition.
D2-labelled cAMP (Acceptor) and Europium cryptate labelled cAMP antibody (Donor) (Cisbio/Perkin Elmer 62AM4PEC) were dissolved in water following the manufacturer's instructions, aliquoted and stored at −80° C.
CHO-K1 cells expressing exogenous β-ARs were resuspended using methods as described above, were recovered from flasks using PBS […] (Caisson PBL02) and centrifuged at 250×g for 5 minutes in a 50 ml falcon tube. PBS/versene was removed by aspiration and cells were resuspended in a minimal volume of room temperature 1× stimulation buffer+IBMX prior to cell counting. 5 ul cells of correct density (2000 cells/well) were added to compound in assay plates using a Multidrop Combi (Thermofisher). Cells and compounds were covered with a clear plate seal (Axygen PCR-SP) and incubated at 37° C., 5% CO2 for 30 minutes. cAMP accumulation was then stopped by adding 10 μL HTRF detection reagents in lysis buffer using the Multidrop Combi, plates were covered with an aluminum plate seal (Axygen PCR-AS-600) and agitated (Heidolph Titramax 1000, setting 600) for at least 2 hours, to allow competition between D2-cAMP and stimulated cAMP for the donor-labelled cAMP antibody to reach equilibrium.
HTRF was detected using a Tecan Spark plate reader, operated using SparkControl™ software, using the TR fluorescence intensity setting. Both donor and acceptor was excited at 320 nm, detected after 100 μs delay, with 400 μs integration time, and 50 flashes per read. […] To standardize reads across experiments, camera gain was manually set to 120 for donor detection, and 140 for acceptor detection.

A short description of data set [1]: In vivo PK in rats (IV and PO). The note with it: male SD rat. The method, then: The rat pharmacokinetics studies of exemplary compounds NI-C and NI-D were conducted with male SD rats. These rats were typically about 6-8 weeks old, weighing 200 g to 300 g. Animals were fasted overnight and have free access to food 4 hours after dosing. A required volume of vehicle was added to reach the target concentration of the test article and vehicle component to prepare for the dosing. The dosing vehicle was PEG400 or 30% PEG400 in saline for IV, or 0.5% methylcellulose in water for PO. For IV dosing, the animals were administered intravenously via tail vein. For PO dosing, the animals were administered via oral gavage. After dosing, blood sample was collected (~0.2 mL per time point) through jugular vein or heart puncture. Blood of each sample was transferred into plastic micro centrifuge tubes containing EDTA-K2. Collection tubes with blood samples and anticoagulant were inverted several times for proper mixing of the tube contents and then placed on wet ice. The blood samples were centrifuged at 2000 g for 5 minutes at 4° C. to obtain plasma which was stored in a freezer at −75±15° C. prior to analysis. Samples were analyzed using LC-MS/MS. WinNonlin were used for pharmacokinetic calculations.

The target in data set [2] is T2, OATP1A2 (Homo sapiens, UniProt P46721).
T2 sequence (P46721 1-670): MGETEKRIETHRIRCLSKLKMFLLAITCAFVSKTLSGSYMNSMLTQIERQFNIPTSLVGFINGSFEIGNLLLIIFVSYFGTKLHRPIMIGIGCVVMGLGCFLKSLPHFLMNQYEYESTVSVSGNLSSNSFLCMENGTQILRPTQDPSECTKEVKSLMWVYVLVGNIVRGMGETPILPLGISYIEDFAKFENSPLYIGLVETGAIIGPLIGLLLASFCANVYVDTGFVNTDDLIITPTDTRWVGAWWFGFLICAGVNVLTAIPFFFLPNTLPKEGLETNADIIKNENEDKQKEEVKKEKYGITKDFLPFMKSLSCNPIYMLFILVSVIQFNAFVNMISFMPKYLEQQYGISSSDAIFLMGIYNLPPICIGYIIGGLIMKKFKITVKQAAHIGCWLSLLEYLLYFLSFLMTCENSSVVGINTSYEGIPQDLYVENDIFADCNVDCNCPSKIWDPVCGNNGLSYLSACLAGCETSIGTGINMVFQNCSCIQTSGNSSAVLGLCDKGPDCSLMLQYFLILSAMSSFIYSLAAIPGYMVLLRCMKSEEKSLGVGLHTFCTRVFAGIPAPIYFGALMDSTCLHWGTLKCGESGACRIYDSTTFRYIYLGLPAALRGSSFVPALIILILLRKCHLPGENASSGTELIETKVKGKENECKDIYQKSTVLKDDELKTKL
The data set is described as follows: Uptake in OATP1A2-transfected cells versus control cells. The note with it: 2-fold threshold.

The target of data set [3] is T3, β2-AR (Homo sapiens, UniProt P07550). Briefly: Compound 03-5 β2-AR occupancy calculated with the Gaddum equation from measured plasma and CSF concentrations. The note with it: alone, no nadolol or isomer competition.
T3 sequence (P07550 whole entry): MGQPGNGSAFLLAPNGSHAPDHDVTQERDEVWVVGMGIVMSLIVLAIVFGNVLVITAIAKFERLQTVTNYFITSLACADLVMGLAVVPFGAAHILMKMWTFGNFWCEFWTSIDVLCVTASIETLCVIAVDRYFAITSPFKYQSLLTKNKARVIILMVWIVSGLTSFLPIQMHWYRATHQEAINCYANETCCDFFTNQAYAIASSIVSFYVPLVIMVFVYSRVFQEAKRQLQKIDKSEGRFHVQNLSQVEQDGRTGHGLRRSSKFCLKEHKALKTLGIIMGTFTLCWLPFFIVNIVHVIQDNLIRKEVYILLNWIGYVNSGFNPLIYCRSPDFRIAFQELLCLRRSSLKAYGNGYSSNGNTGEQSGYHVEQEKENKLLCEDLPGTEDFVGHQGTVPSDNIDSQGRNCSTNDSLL
For data set [4], the target named is T3, β2-AR. The data set is described as follows: Radioligand binding. The note with it: read-out: β2-AR affinity by radioligand binding. The text has this:
In contrast, NI-C blocks the fraction of peripheral β2-AR receptors bound by Compound 03-5 to 0.02 while maintaining the fraction of central β2-AR receptors bound by Compound 03-5 to 0.21.

The next data set is described as follows: clinical. The note with it: human, CSF/plasma.
A short description of data set [5]: CSF and plasma concentrations in healthy human subjects dosed with Compound 03-5 and nadolol. To be noted: for CSF/Plasma ratio: Day 6; for Concentration in CSF / Concentration in plasma: Day 6, 2 hrs after Compound 03-5 (15 mg), nadolol 20 mg.
Data set [6] deals with T2, OATP1A2.

Where two headings read alike, the source gives them in different places.

Data on eight molecules can be found in patent US20260232607A1, “COMPOSITIONS AND METHODS INVOLVING ISOLATED COMPOUNDS” (CuraSen Therapeutics, Inc., priority 2022, published 2026).

What is called pKi is the negative decadic logarithm of the Ki, by convention in mol/L. Low values mean a large Ki, high ones a small Ki. Usually Cmax stands for the highest concentration seen after dosing. What is called MRT is a mean duration of stay, worked out from the concentration-time curve. By Tmax is commonly meant the time at which the peak concentration occurs. The term Kp denotes tissue or fluid exposure divided by exposure in the circulation.

T1 sequence (P08588 whole entry): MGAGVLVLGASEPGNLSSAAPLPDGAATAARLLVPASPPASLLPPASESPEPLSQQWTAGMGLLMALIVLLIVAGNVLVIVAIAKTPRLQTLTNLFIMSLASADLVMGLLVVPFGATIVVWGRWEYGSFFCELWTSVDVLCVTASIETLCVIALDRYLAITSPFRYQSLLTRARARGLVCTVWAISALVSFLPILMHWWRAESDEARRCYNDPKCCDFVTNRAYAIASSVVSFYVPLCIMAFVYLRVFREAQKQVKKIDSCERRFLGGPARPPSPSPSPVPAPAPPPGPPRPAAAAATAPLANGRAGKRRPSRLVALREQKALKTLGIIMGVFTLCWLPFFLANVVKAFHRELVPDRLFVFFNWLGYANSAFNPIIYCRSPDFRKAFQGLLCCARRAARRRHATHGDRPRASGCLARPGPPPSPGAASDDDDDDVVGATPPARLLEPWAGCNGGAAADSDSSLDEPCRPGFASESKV

As for `CC(C)(C)NCC(O)COc1cccc2c1CC(O)C(O)C2` (single isomer, unassigned) [NI-A, (RSR)-nadolol], on β1-AR, the Ki is 891 nM and the pKi was 6.05 ± 0.10.
As to `CC(C)(C)NCC(O)COc1cccc2c1CC(O)C(O)C2` (single isomer, unassigned) [NI-B, (RRS)-nadolol], on β1-AR, the Ki was found to be 354 nM and the pKi worked out at 6.45 ± 0.10.
In data set [1] (1 mg/kg iv), `CC(C)(C)NCC(O)COc1cccc2c1CC(O)C(O)C2` (single isomer, unassigned) [NI-C, (SRS)-nadolol] registered an AUCInf of 488 ng·h/mL, a C0 of 1142 ng/mL, a CL of 34.5 mL/min/kg and a T1/2 of 2.87 h. The Vss in data set [1] (1 mg/kg iv) was 4.74 L/kg. In data set [1] (5 mg/kg po), the AUCInf amounted to 200 ng·h/mL, the peak concentration (Cmax) stood at 37.9 ng/mL, the MRT was 4.12 h and the Tmax turned out to be 1.08 h. In addition, in data set [1] (5 mg/kg po vs 1 mg/kg iv), the Bioavailability came to 8.21%. In addition, on β1-AR, the Ki was 4.6 nM and the pKi is listed as 8.34 ± 0.12.
Take `CC(C)(C)NCC(O)COc1cccc2c1CC(O)C(O)C2` (single isomer, unassigned) [NI-D, (SSR)-nadolol]: at β1-AR, the Ki was determined as 2.6 nM and the pKi amounted to 8.58 ± 0.18.
For `CC(C)(C)NCC(O)COc1cccc2c1CC(O)C(O)C2` (centres unmarked) [(SRS)-NADOLOL], the “Substrate for OATP1A2” value on OATP1A2 [2] was “appear to be substrates for OATP1A2”.
In the case of `CC(C)(C)NCC(O)COc1cccc2c1CC(O)C(O)C2` (centres unmarked) [(SSR)-NADOLOL], at OATP1A2 [2], the “Substrate for OATP1A2” value is listed as “does not appear to be a substrate for OATP1A2”.
Turning to `CC(C)(C)NC[C@H](O)c1cccc(C#N)n1` [Compound 03-5], the “Fraction of β2-AR receptors bound by Compound 03-5 in the CSF” value on β2-AR [3] is listed as 0.29. Further, the “Fraction of β2-AR receptors bound by Compound 03-5 in the periphery” value on β2-AR [3] was 0.46. Further, at β2-AR [4], the Ki was 374 nM. For the same molecule, the Kp in “clinical” stood at 0.47; in the data set “clinical” (oral) it was 0.42. In addition, the CSF/Plasma ratio is reported as 47% in data set [5] (Average of 4 subjects), 44% in data set [5] (Subject B), 42% in data set [5] (Subject C) and 59% in data set [5] (Subject D). In addition, the “Concentration in CSF” value in data set [5] (Average of 4 subjects) stood at 34.675 ng/mL; in data set [5] (Subject A) it was 37 ng/mL; in data set [5] (Subject B) it was 27.1 ng/mL; in data set [5] (Subject C), 30.3 ng/mL; in data set [5] (Subject D), 44.3 ng/mL. Moreover, the Concentration in plasma in data set [5] (Average of 4 subjects) amounted to 74.25 ng/mL; in data set [5] (Subject A) it was 87.4 ng/mL; in data set [5] (Subject B) it was 61.2 ng/mL; in data set [5] (Subject C), 72.9 ng/mL; in data set [5] (Subject D), 75.5 ng/mL.
Consider `CC(C)(C)NCC(O)COc1cccc2c1CC(O)C(O)C2` (centres unmarked) [Nadolol, reference compound], for which the Ki at β1-AR was 5.5 nM. On OATP1A2 [6], the “Substrate for OATP1A2” value is given as “appear to be substrates for OATP1A2”.
